The target in the assay is SGLT2 (Homo sapiens (Human), UniProt P31639). Put plainly: In vitro SGLT2 inhibitory activity: 1-NBDG uptake by CHO-SGLT2 cells. Format: cell-based. The settings on record: for IC50: CHO-SGLT2 cells, 1-NBDG uptake, read-out: IC50 inhibiting SGLT2. As to the method:
The effect of the compounds on SGLT2-mediated glucose uptake was investigated by establishing an SGLT2 overexpression cell model and using the fluorescent glucose (2-deoxy-1-[(7-nitro-2,1,3-benzoxadiazol-4-yl)amino]-D-glucose, 1-NBDG) tracer method to screen out candidate compounds with SGLT2 inhibitory activity.
The humanized SGLT2 overexpression cells (CHO-SGLT2) constructed from Chinese hamster ovary (CHO) cells were cultured in 1640 medium (Gibco) containing 10% fetal bovine serum (Gibco, 10270), subcultured at a ratio of 1:3, and replaced with new culture medium 3 times every week. Fluorescence detection cell culture plates and other culture flasks were purchased from Corning Company. […] Appropriate amounts of all compounds were weighed, prepared into 100 mM stock solutions with DMSO, and stored at 4° C. in the dark.
Before the 1-NBDG uptake test, CHO-SGLT2 cells were digested and seeded in a 96-well cell culture plate with a cell number of 40,000/well. After the cells were cultured for 48 h, the medium was discarded, and 100 μl of choline buffer was added to each well. After the cells were starved at 37° C. for 30 min, the choline buffer was discarded and 100 μl of the newly prepared Na^+ sodium buffer containing […] 1-NBDG and the test compounds (Compound) was added. The solvent DMSO was used as the negative control (Control) for the test compounds.
The Na^+ sodium buffer without 1-NBDG was used as the blank control (Blank). After 1 h of culture, the incubation solution was discarded. The cells were washed with choline buffer solution 3 times, and then 50 μl of neutral lysate was added to each well to lyse the cells on ice for 10 min. The fluorescence value of each well was detected using a multi-functional microplate reader at […].
At least 3 experimental replicates were set for each compound at indicated concentrations, and the data were expressed as mean±SEM. Uptake amount of 1-NBDG by cells=fluorescence value1-NBDG-fluorescence valueBlank. Inhibition rate on uptake amount of SGLT2 glucose (%)=(uptake amountcontrol−uptake amountcompound)/uptake amountcontrol×100%. Concentration-inhibition rate curves were plotted using Graphpad Prism software, and IC50 values were calculated accordingly.

Experimental findings from US20250129055A1, “GLUCOSIDE DERIVATIVE, AND PREPARATION METHOD THEREFOR AND APPLICATION THEREOF” (BEIJING INCREASE INNOVATIVE DRUG CO., LTD., priority 2020, published 2025) are described below.

One may read the IC50 as the concentration at which inhibition is half-maximal.

Chain of SGLT2 (P31639 whole entry): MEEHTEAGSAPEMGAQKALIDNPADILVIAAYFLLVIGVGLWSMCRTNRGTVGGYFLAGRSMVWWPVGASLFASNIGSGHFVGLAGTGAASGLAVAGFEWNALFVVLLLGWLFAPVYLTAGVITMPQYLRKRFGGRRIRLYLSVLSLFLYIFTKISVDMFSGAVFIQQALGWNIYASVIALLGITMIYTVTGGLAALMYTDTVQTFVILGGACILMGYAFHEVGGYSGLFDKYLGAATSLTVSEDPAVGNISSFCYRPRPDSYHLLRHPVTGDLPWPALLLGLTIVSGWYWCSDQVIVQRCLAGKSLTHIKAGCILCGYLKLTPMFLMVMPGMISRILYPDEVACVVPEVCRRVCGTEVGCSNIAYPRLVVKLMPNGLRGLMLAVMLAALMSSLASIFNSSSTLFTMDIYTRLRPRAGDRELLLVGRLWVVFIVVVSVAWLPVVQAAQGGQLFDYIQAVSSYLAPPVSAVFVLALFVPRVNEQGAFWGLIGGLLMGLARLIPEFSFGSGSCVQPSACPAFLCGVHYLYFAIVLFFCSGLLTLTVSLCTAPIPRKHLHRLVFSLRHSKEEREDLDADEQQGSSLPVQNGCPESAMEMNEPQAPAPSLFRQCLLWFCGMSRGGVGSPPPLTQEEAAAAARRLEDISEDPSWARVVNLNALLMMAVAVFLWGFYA

As for `CCOc1ccc(Oc2cc([C@H]3O[C@H](CO)[C@@H](O)[C@H](O)[C@H]3O)ccc2Cl)cc1` [Compound 3, (2R,3R,4R,5S,6R)-2-[4-chloro-3-(4-ethoxyphenoxy)phenyl]-6-(hydroxymethyl)oxane-3,4,5-triol], the half-maximal inhibitory concentration (IC50) is 6.75 nM. Besides, the “Inhibition rate of compounds on SGLT2 (%)” value (from here on “Inhibition rate … (%)”) (compound concentration 1 × 10^−5 mol/L) came to 96.4 ± 8.4%. Further, the “Inhibition rate … (%)” value (compound concentration 5 × 10^−7 mol/L) came to 78.7 ± 1.9%. For the same molecule, for the setting “compound concentration 5 × 10^−8 mol/L”, the “Inhibition rate … (%)” value is 71.7 ± 1.7%. Also, the “Inhibition rate … (%)” value (compound concentration 5 × 10^−9 mol/L) was found to be 42.8 ± 2.3%. Under “compound concentration 5 × 10^−10 mol/L”, the “Inhibition rate … (%)” value was determined as 8.7 ± 2.1%. Further, the “Inhibition rate … (%)” value (compound concentration 5 × 10^−11 mol/L) was 3.7 ± 4.2%.

On to `CS[C@H]1O[C@@H](c2cc3c(c(Cc4ccc5c(c4)OCCO5)c2)CCC3)[C@H](O)[C@@H](O)[C@@H]1O` [Compound 5], for which the IC50 is 2.26 nM.

`CS[C@H]1O[C@@H](c2ccc(C)c(Cc3ccc4c(c3)CCCO4)c2)[C@H](O)[C@@H](O)[C@@H]1O` [Compound 8]: the IC50 was found to be 0.356 nM.

For the molecule `CS[C@H]1O[C@@H](c2ccc(C)c(Cc3ccc4c(c3)CC4)c2)[C@H](O)[C@@H](O)[C@@H]1O` [Compound 12], the IC50 was determined as 1.01 nM.

On to `OC[C@H]1O[C@@H](c2ccc(F)c(Cc3ccc4c(c3)OCCO4)c2)[C@H](O)[C@@H](O)[C@@H]1O` [Compound 27], for which the IC50 is 3.32 nM.
